From the supplement of paper PMC4862054
“And” between values parts separate entries of the source, which are not always exact repeats. Equal entries are not always repeated.

Tests used:
Details in all cases: incubation time: 72 h
[1] = test system: BT-549; assay: drug sensitivity score (DSS), CellTox Green (DSS (AUC-based score)); higher = stronger drug effect (viability inhibition or cytotoxicity); extreme values may be limits of the assay
Outline: (§1)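 Plates with 384 wells held compound at 5 concentrations in 10-fold steps over a 10,000-fold range specific to each compound. Breast cancer cell lines were added in 20 µl suspension and incubated 72 h, then read for CellTox Green and CellTiter-Glo signals, with each plate normalised to 0.1 % DMSO and a positive kill control. The drug sensitivity score is based on the area under the fitted dose-response curve.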

[2] = test system: HCC1937; assay: as above
Outline: as §1

[3] = test system: MDA-MB-436; assay: as above
Outline: as §1

[4] = test system: HDQ-P1; assay: as above
Outline: as §1

[5] = test system: MDA-MB-231; assay: as above
Outline: as §1

[6] = test system: HCC1599; assay: as above
Outline: as §1

[7] = test system: MDA-MB-453; assay: normalised viability (% of control), CellTiter-Blue; higher = more viable cells (about 100 = DMSO control)
Outline: (§2)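 Breast cancer cell lines were treated for 72 h in 384-well format and measured by CellTiter-Blue fluorescence at 560/590 nm. Results were normalised per plate to vehicle (100) and a positive kill control (0). The entry is normalised viability at a single listed concentration of the series.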

[8] = test system: MFM-223; assay: as above
Outline: as §2

[9] = test system: BT-549; assay: as above
Outline: as §2

[10] = test system: MDA-MB-468; assay: as above
Outline: as §2

[11] = test system: HCC1937; assay: as above
Outline: as §2

[12] = test system: DU-4475; assay: as above
Outline: as §2

[13] = test system: CAL-120; assay: as above
Outline: as §2

[14] = test system: CAL-85-1; assay: as above
Outline: as §2

[15] = test system: Hs578T; assay: as above
Outline: as §2

[16] = test system: SK-BR-3; assay: as above
Outline: as §2

[17] = test system: HCC1143; assay: as above
Outline: as §2

[18] = test system: CAL-51; assay: as above
Outline: as §2

[19] = test system: MDA-MB-436; assay: as above
Outline: as §2

[20] = test system: BT-474; assay: as above
Outline: as §2

[21] = test system: HDQ-P1; assay: as above
Outline: as §2

[22] = test system: CAL-148; assay: as above
Outline: as §2

[23] = test system: MDA-MB-231; assay: as above
Outline: as §2

[24] = test system: HCC1599; assay: as above
Outline: as §2

Work on `Cc1nc(Nc2ncc(C(=O)Nc3c(C)cccc3Cl)s2)cc(N2CCN(CCO)CC2)n1` [Dasatinib] yielded a drug sensitivity score [1] of 2.37, a drug sensitivity score [2] of 0 and a drug sensitivity score [3] of 0. The drug sensitivity score [4] was 0, the drug sensitivity score [5] was 4.62 and the drug sensitivity score [6] was 0. For the same molecule, the normalised viability ([7]; 0.3 nM) was 121% and 115%, the normalised viability ([7]; 3 nM) was 96.6% and 99.2% and the normalised viability ([7]; 10 nM) was 97.7% and 104%. For the same molecule, the normalised viability ([8]; 1 nM) was 96.2% and 96.8%, the normalised viability ([8]; 100 nM) was 84.3% and 90.4% and the normalised viability ([8]; 1000 nM) was 70.1% and 72%. For the same molecule, the normalised viability ([9]; 1 nM) was 102% and 95.4%, the normalised viability ([9]; 100 nM) was 62.5% and 51.1% and the normalised viability ([9]; 1000 nM) was 38.9% and 35.7%. The normalised viability ([10]; 1 nM) was 114% and 109%, the normalised viability ([10]; 100 nM) was 105% and 100% and the normalised viability ([10]; 1000 nM) was 94.6% and 90.4%. The normalised viability ([11]; 1 nM) was 95.7% and 92.3%, the normalised viability ([11]; 100 nM) was 53.9% and 78% and the normalised viability ([12]; 0.3 nM) was 107% and 83.4%. For the same molecule, the normalised viability ([12]; 3 nM) was 101% and 97.1%, the normalised viability ([12]; 10 nM) was 101% and 95.7% and the normalised viability ([13]; 1 nM) was 93.5% and 85.7%. The normalised viability ([13]; 100 nM) was 46% and 38.3%, the normalised viability ([13]; 1000 nM) was 26.6% and 22.4% and the normalised viability ([14]; 0.3 nM) was 97.8% and 95.5%. The normalised viability ([14]; 3 nM) was 84.2% and 87.7%, the normalised viability ([14]; 10 nM) was 87.9% and 92.9% and the normalised viability ([15]; 1 nM) was 108% and 102%. The normalised viability ([15]; 100 nM) was 55.5% and 45.7%, the normalised viability ([15]; 1000 nM) was 27% and 24.8% and the normalised viability ([16]; 1 nM) was 109% and 92.9%. For the same molecule, the normalised viability ([16]; 100 nM) was 112% and 98.6%, the normalised viability ([17]; 1 nM) was 100% and 78.6% and the normalised viability ([17]; 100 nM) was 65.4% and 55%. For the same molecule, the normalised viability ([17]; 1000 nM) was 48.9% and 37.6%, the normalised viability ([18]; 0.3 nM) was 106% and 112% and the normalised viability ([18]; 3 nM) was 92.3% and 93.9%. The normalised viability ([18]; 10 nM) was 79.3% and 84.4%, the normalised viability ([19]; 1 nM) was 91.2% and 105% and the normalised viability ([19]; 100 nM) was 64.8% and 56.8%. The normalised viability ([19]; 1000 nM) was 40.4% and 30.4%, the normalised viability ([20]; 1 nM) was 126% and 102% and the normalised viability ([20]; 100 nM) was 113% and 96.2%. For the same molecule, the normalised viability ([20]; 1000 nM) was 97.9% and 95.4%, the normalised viability ([21]; 0.3 nM) was 106% and 111% and the normalised viability ([21]; 3 nM) was 83.8% and 84.8%. The normalised viability ([22]; 0.3 nM) was 97.9% and 80.8%, the normalised viability ([22]; 3 nM) was 110% and 85.8% and the normalised viability ([22]; 10 nM) was 98.1% and 88.5%. For the same molecule, the normalised viability ([23]; 1 nM) was 87.5% and 81.5%, the normalised viability ([23]; 100 nM) was 53% and 40.2% and the normalised viability ([23]; 1000 nM) was 40.5% and 34%. The normalised viability ([24]; 1 nM) was 109% and 107%, the normalised viability ([24]; 100 nM) was 103% and 114% and the normalised viability ([24]; 1000 nM) was 101% and 100%.
`Cc1c(CN2CCN(C(=O)[C@H](C)O)CC2)sc2c(N3CCOCC3)nc(-c3cnc(N)nc3)nc12` [GDC-0980] showed a drug sensitivity score [1] of 0, a drug sensitivity score [2] of 0 and a drug sensitivity score [3] of 0. For the same molecule, the drug sensitivity score [4] was 1.58, the drug sensitivity score [5] was 0 and the drug sensitivity score [6] was 0. It also gave a normalised viability ([7]; 3 nM) of 116%, a normalised viability ([7]; 30 nM) of 77.8% and a normalised viability ([7]; 100 nM) of 56.1%. For the same molecule, the normalised viability ([8]; 10 nM) was 86.1%, the normalised viability ([8]; 1000 nM) was 18.1% and the normalised viability ([8]; 10000 nM) was 14.2%. For the same molecule, the normalised viability ([9]; 10 nM) was 88.7%, the normalised viability ([9]; 1000 nM) was 33.3% and the normalised viability ([9]; 10000 nM) was 13.6%. The normalised viability ([10]; 10 nM) was 105%, the normalised viability ([10]; 1000 nM) was 44.4% and the normalised viability ([10]; 10000 nM) was 10.7%. The normalised viability ([11]; 10 nM) was 113%, the normalised viability ([11]; 1000 nM) was 39.7% and the normalised viability ([11]; 10000 nM) was 26.2%. The normalised viability ([12]; 3 nM) was 102%, the normalised viability ([12]; 30 nM) was 82.1% and the normalised viability ([12]; 100 nM) was 83.5%. For the same molecule, the normalised viability ([13]; 10 nM) was 103%, the normalised viability ([13]; 1000 nM) was 24.1% and the normalised viability ([13]; 10000 nM) was 13.7%. For the same molecule, the normalised viability ([14]; 3 nM) was 102%, the normalised viability ([14]; 30 nM) was 83.3% and the normalised viability ([14]; 100 nM) was 89.2%. The normalised viability ([15]; 10 nM) was 121%, the normalised viability ([15]; 1000 nM) was 28.9% and the normalised viability ([15]; 10000 nM) was 17.1%. The normalised viability ([16]; 10 nM) was 102%, the normalised viability ([16]; 1000 nM) was 15.9% and the normalised viability ([16]; 10000 nM) was 9.04%. For the same molecule, the normalised viability ([17]; 10 nM) was 88.7%, the normalised viability ([17]; 1000 nM) was 33.8% and the normalised viability ([17]; 10000 nM) was 15.6%. For the same molecule, the normalised viability ([18]; 3 nM) was 112%, the normalised viability ([18]; 30 nM) was 98.5% and the normalised viability ([18]; 100 nM) was 71.9%. The normalised viability ([19]; 10 nM) was 81.2%, the normalised viability ([19]; 1000 nM) was 44.7% and the normalised viability ([19]; 10000 nM) was 18.2%. For the same molecule, the normalised viability ([20]; 10 nM) was 115%, the normalised viability ([20]; 1000 nM) was 22.1% and the normalised viability ([20]; 10000 nM) was 12.3%. It also gave a normalised viability ([21]; 3 nM) of 91.9%, a normalised viability ([21]; 30 nM) of 84.3% and a normalised viability ([21]; 100 nM) of 70.8%. The normalised viability ([22]; 3 nM) was 100%, the normalised viability ([22]; 30 nM) was 94.5% and the normalised viability ([22]; 100 nM) was 87.6%. It also gave a normalised viability ([23]; 10 nM) of 95.6%, a normalised viability ([23]; 1000 nM) of 27.6% and a normalised viability ([23]; 10000 nM) of 23.6%. The normalised viability ([24]; 10 nM) was 95%, the normalised viability ([24]; 1000 nM) was 39.7% and the normalised viability ([24]; 10000 nM) was 35.3%.
